Assay results taken from ChEMBL document CHEMBL1134113, “Selective inhibition of Src SH2 by a novel thiol-targeting tricarbonyl-modified inhibitor and mechanistic analysis by (1)H/(13)C NMR spectroscopy” (Bioorg Med Chem Lett, 2001).
The source made the active and inactive calls. The rule behind the calls is not given here.

Assays:
[1] = target: T1, Proto-oncogene tyrosine-protein kinase Src (Homo sapiens, UniProt P12931); assay: Selectivity for Src SH2 domain compared to Cys188Ala Src SH2 domain mutants
[2] = target: Proto-oncogene tyrosine-protein kinase Src (Homo sapiens, UniProt P12931, C188A); assay: (§1) Binding affinity for Cys188Ala Src SH2 domain mutant using BIAcore binding assay
[3] = target: T1, Proto-oncogene tyrosine-protein kinase Src; assay: Binding affinity for wild type Src SH2 domain using BIAcore binding assay
[4] = test system: Proto-oncogene tyrosine-protein kinase Src (Homo sapiens), P12931 [C188A]; assay: as §1; conditions: concentration not given here

| Compound | Selectivity [1] | IC50 [2] [µM] | IC50 [3] [µM] | inhibition [4] [%] |
| --- | --- | --- | --- | --- |
| CC[C@H](C)[C@H](NC(=O)[C@H](CCC(=O)O)NC(=O)[C@H](CCC(=O)O)NC(=O)CCc1ccc(C(=O)C(O)(O)C(=O)OC)cc1)C(N)=O | Active | > 1000 | 20 |  |
| CC[C@H](C)[C@H](NC(=O)[C@H](CCC(=O)O)NC(=O)[C@H](CCC(=O)O)NC(=O)CCc1cccc(C(=O)C(O)(O)C(=O)OC)c1)C(N)=O | Active | > 1000 | 18 |  |
| CC[C@H](C)[C@H](NC(=O)[C@H](CCC(=O)O)NC(=O)[C@H](CCC(=O)O)NC(=O)[C@@H](N)Cc1ccc(OP(=O)(O)O)cc1)C(=O)O |  | 1.33 | 1.2 |  |
| CC[C@H](C)[C@H](NC(=O)[C@H](CCC(=O)O)NC(=O)[C@H](CCC(=O)O)NC(=O)CCc1cccc(C(=O)O)c1)C(N)=O | inactive |  | 250 | 15 |

More lines, now with the values ahead:

| Selectivity [1] | IC50 [2] [µM] | IC50 [3] [µM] | inhibition [4] [%] | Compound |
| --- | --- | --- | --- | --- |
| Active | > 1000 | 100 |  | COC(=O)C(O)(O)C(=O)c1ccccc1 |
| Active | > 1000 | 2.3 |  | CC[C@H](C)[C@H](NC(=O)[C@H](CCC(=O)O)NC(=O)[C@H](CCC(=O)O)NC(=O)C(Cc1ccc(C(=O)C(=O)C(=O)OC)cc1)NC(C)=O)C(N)=O (stereo not given in full) |
| Active | > 1000 | 8.6 |  | COC(=O)C(=O)C(=O)c1ccc(CC(NC(C)=O)C(=O)N[C@@H](CCC(=O)O)C(=O)N[C@H](C(=O)N[C@@H](CC(C)C)C(N)=O)[C@@H](C)O)cc1 (stereo not given in full) |
